Reference: BindingDB's records for doi:10.1007/BF02244985 (Mayo Clinic, 1994)
Where a name gives a salt, the structure may show the parent alone.

Experiments:
[1] = target: T1, Muscarinic acetylcholine receptor M2 (Homo sapiens, UniProt P08172)
T1 sequence (P08172 whole entry): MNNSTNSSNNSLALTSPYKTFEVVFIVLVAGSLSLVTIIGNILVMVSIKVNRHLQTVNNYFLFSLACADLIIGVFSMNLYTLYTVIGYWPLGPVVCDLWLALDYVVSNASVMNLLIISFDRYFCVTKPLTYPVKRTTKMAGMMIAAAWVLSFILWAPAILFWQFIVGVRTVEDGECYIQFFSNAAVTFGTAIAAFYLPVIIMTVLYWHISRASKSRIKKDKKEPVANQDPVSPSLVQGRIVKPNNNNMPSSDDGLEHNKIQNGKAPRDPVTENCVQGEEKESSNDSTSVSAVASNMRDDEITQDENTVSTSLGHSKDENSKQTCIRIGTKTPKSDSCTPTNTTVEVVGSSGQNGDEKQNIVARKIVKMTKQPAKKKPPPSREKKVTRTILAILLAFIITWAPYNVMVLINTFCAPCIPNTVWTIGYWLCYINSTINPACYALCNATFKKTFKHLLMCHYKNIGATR

[2] = target: T2, Alpha-2A adrenergic receptor (Homo sapiens, UniProt P08913)
T2 sequence (P08913 whole entry): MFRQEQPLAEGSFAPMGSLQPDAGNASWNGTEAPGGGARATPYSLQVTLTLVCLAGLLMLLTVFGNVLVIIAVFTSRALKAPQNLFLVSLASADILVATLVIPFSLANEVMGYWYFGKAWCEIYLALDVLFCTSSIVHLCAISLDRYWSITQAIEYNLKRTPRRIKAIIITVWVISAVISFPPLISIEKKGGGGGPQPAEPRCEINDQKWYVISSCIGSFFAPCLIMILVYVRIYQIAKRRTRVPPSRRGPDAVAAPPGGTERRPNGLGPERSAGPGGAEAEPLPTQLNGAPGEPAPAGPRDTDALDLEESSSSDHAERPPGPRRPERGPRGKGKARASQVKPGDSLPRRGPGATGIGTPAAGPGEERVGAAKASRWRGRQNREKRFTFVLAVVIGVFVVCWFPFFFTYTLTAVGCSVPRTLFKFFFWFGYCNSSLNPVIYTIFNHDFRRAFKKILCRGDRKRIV

[3] = target: T3, 5-hydroxytryptamine receptor 1A (Homo sapiens, UniProt P08908)
T3 sequence (P08908 whole entry): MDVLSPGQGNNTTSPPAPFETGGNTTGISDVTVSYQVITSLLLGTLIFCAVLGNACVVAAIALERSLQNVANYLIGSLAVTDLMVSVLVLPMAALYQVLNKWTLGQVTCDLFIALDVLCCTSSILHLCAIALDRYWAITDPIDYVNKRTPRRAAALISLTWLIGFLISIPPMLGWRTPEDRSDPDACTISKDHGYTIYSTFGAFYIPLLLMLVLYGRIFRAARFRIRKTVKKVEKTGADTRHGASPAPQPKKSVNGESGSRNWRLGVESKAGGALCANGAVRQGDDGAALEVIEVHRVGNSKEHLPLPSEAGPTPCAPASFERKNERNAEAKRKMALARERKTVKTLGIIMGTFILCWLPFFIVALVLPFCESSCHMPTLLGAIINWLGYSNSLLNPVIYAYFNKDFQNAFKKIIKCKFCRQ

[4] = target: T4, Alpha-1A adrenergic receptor (Homo sapiens, UniProt P35348)
T4 sequence (P35348 whole entry): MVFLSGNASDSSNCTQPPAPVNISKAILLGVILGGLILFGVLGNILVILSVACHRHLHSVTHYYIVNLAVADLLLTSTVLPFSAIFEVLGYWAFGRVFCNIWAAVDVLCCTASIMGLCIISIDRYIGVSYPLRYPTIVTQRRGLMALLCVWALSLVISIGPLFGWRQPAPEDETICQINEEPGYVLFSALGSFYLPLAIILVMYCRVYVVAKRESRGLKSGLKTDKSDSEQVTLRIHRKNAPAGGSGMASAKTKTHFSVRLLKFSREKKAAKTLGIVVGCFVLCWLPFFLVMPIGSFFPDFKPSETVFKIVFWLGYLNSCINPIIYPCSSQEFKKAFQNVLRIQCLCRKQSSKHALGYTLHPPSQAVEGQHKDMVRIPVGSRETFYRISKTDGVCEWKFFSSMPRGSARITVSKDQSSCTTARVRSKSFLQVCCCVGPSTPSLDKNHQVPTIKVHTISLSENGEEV

D(2) dopamine receptor = D(2) dopamine receptor (Homo sapiens, UniProt P14416)
Chain of D(2) dopamine receptor (P14416 whole entry): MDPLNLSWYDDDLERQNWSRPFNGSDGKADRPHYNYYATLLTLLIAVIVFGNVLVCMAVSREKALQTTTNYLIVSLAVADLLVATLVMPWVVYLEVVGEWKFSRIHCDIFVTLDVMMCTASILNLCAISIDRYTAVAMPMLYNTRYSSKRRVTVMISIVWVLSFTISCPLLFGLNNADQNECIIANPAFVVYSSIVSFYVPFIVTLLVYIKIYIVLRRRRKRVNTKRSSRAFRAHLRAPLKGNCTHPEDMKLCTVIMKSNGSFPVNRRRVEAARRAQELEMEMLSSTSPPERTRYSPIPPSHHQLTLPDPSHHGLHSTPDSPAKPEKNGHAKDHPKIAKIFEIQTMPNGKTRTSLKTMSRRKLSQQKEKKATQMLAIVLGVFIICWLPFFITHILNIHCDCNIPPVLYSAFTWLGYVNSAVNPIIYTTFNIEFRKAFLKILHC

`CN(C)CCCN1c2ccccc2CCc2ccccc21` was tested, and the Ki [1] was 46 nM, the Ki [2] was 3100 nM and the Ki [3] was 5800 nM. For the same compound, the Ki [4] was 32 nM and the Ki (D(2) dopamine receptor) was 620 nM.

`CN(C)CCC=C1c2ccccc2CCc2ccccc21` gave a Ki [2] of 690 nM, a Ki [3] of 450 nM and a Ki [4] of 24 nM. It also gave a Ki (D(2) dopamine receptor) of 1460 nM.

Work on `N[C@H]1CC[C@@H](c2ccc(Cl)c(Cl)c2)c2ccccc21` yielded a Ki [1] of 1430 nM, a Ki [2] of 7800 nM and a Ki [3] greater than 10000 nM. It also gave a Ki [4] of 1200 nM and a Ki (D(2) dopamine receptor) greater than 10000 nM.

Compound `CN(C)CC/C=C1/c2ccccc2COc2ccccc21` has a Ki (D(2) dopamine receptor) of 360 nM.

Work on `CCc1nn(CCCN2CCN(c3cccc(Cl)c3)CC2)c(=O)n1CCOc1ccccc1` [2-{3-[4-(3-chlorophenyl)piperazin-1-yl]propyl}-5-ethyl-4-(2-phenoxyethyl)-2,4-dihydro-3H-1,2,4-triazol-3-one] yielded a Ki [3] of 80 nM, a Ki [4] of 48 nM and a Ki (D(2) dopamine receptor) of 910 nM.

In the case of `COc1ccc(OC[C@H]2CN(C)CC[C@@H]2c2ccccc2)cc1` [(3R,4S)-3-(4-Methoxy-phenoxymethyl)-1-methyl-4-phenyl-piperidine], the Ki [1] is reported as 184 nM, the Ki [2] is reported as 1970 nM and the Ki [3] is reported as 2290 nM. The Ki [4] was 650 nM and the Ki (D(2) dopamine receptor) was 590 nM.

In the case of `CC(NC(C)(C)C)C(=O)c1cccc(Cl)c1` (stereo not given) [BUPROPION HYDROCHLORIDE], the Ki [1] is reported as greater than 10000 nM, the Ki [2] is reported as greater than 10000 nM and the Ki [3] is reported as greater than 10000 nM. For the same compound, the Ki [4] was 4200 nM and the Ki (D(2) dopamine receptor) was greater than 10000 nM.

For `CN(CCCN1c2ccccc2CCc2ccccc21)CC(=O)c1ccc(Cl)cc1` [CAS_23047-25-8], the Ki [1] was 67 nM, the Ki [2] was 2700 nM and the Ki [3] was 4600 nM. It also gave a Ki [4] of 100 nM and a Ki (D(2) dopamine receptor) of 2000 nM.

With `CNCCCN1c2ccccc2CCc2ccccc21` [Desmethylimipramine] the Ki (D(2) dopamine receptor) was 3500 nM.

With `CNCCC(Oc1ccccc1C)c1ccccc1` (stereo not given) [Methyl-(3-phenyl-3-o-tolyloxy-propyl)-amine(tomoxetine)] the Ki [4] was 3800 nM.

In the case of `NCC[C@H](Oc1ccc(C(F)(F)F)cc1)c1ccccc1` [NORFLUOXETINE], the Ki [1] is reported as 810 nM, the Ki [2] is reported as greater than 10000 nM and the Ki [3] is reported as greater than 10000 nM. The Ki [4] was 3900 nM and the Ki (D(2) dopamine receptor) was greater than 10000 nM.

`CNCCC=C1c2ccccc2CCc2ccccc21` [NORTRIPTYLINE] was tested, and the Ki [1] was 37 nM, the Ki [3] was 294 nM and the Ki [4] was 55 nM. It also gave a Ki (D(2) dopamine receptor) of 2570 nM.

Compound `CN(C)Cc1nnc2n1-c1ccc(Cl)cc1C(c1ccccc1)=NC2` [NSC_37632] has a Ki [1] greater than 10000 nM, a Ki [2] greater than 10000 nM and a Ki [3] greater than 10000 nM. For the same compound, the Ki [4] was greater than 10000 nM and the Ki (D(2) dopamine receptor) was greater than 10000 nM.

With `CCc1nn(CCCN2CCN(c3cccc(Cl)c3)CC2)c(=O)n1CC` [NSC_40589] the Ki [1] was greater than 10000 nM, the Ki [2] was 570 nM and the Ki [3] was 85 nM. The Ki [4] was 38 nM and the Ki (D(2) dopamine receptor) was 2300 nM.

`COc1ccc(C(CN(C)C)C2(O)CCCCC2)cc1` (stereo not given) [NSC_62923] showed a Ki [1] greater than 10000 nM, a Ki [2] greater than 10000 nM and a Ki [3] greater than 10000 nM. The Ki [4] was greater than 10000 nM and the Ki (D(2) dopamine receptor) was greater than 10000 nM.

Work on `Fc1ccc([C@@H]2CCNC[C@H]2COc2ccc3c(c2)OCO3)cc1` [PAROXETINE] yielded a Ki [3] greater than 10000 nM and a Ki (D(2) dopamine receptor) greater than 10000 nM.

Work on `CN[C@@H]1CC[C@@H](c2ccc(Cl)c(Cl)c2)c2ccccc21` [[4-(3,4-Dichloro-phenyl)-1,2,3,4-tetrahydro-naphthalen-1-yl]-methyl-amine] yielded a Ki [1] of 630 nM, a Ki [3] greater than 10000 nM and a Ki [4] of 380 nM. The Ki (D(2) dopamine receptor) was greater than 10000 nM.
